From patent publication US20240139196A1, “COMBINATION TREATMENTS IN DIFFICULT TO TREAT PATIENTS WITH ADVANCED AND/OR METASTATIC TROP-2 OVEREXPRESSING CANCERS” (G1 Therapeutics, Inc., priority 2021, published 2024)
“And” between values parts separate entries of the source, which are not always exact repeats. Identical values can stand only once. “Also recorded” adds a separate entry of the source.

Key:
[1] = tested on: patients with mUC; settings: in vivo; cited from earlier work
[2] = tested on: patients with unresectable locally advanced or metastatic TNBC who received at least 2 prior treatments; test: Phase 2 single-arm open-label study of trilaciclib administered prior to sacituzumab govitecan-hziy (NCT05113966); format: in vivo, human; settings: for Grade ≥3 TRAEs related to the named study drug / patients with AEs related to the named study drug: combination study, attribution by investigators
Procedure: Early results from initial human clinical trials (see, e.g., NCT05113966) have shown trilaciclib's ability to drastically reduce side effects associated with sacituzumab govitecan administration, including a reduction in the incidence of severe (Grade 3/4) neutropenia (see, for example, Example 1, FIG. 2A). In the initial studies, 8 female patients (median age 55.0 years) had been enrolled and completed a median 3 (range 1-6) 21-day cycles, wherein sacituzumab govitecan was administered on days 1 and 8 of each 21-day cycle, and trilaciclib was administered over a 30 minute intravenous administration within 4 hours prior to administration of sacituzumab govitecan on days 1 and 8 of each 21-day cycle (see, e.g., FIG. 1). All patients had received a prior taxane and 7 had received a prior immune checkpoint inhibitor (5 atezolizumab, 2 pembrolizumab; 4 in the adjuvant setting, 3 in the metastatic setting). Severe (Grade 3/4) neutropenia occurred in only 1 patient (12.5% with trilaciclib compared with 52% in the ASCENT study). No patients had Grade 3/4 anemia or thrombocytopenia, and none had febrile neutropenia or a serious infection. Granulocyte colony-stimulating factors were administered to 2 patients (25%) and 1 patient required intravenous antibiotics. No patients required red blood cell/platelet transfusions or erythropoiesis-stimulating agents. […] There was only 1 treatment-related adverse event of diarrhea.
FIG. 1 is a schematic of a human clinical trial assessing the safety and efficacy of trilaciclib administered with sacituzumab govitecan-hziy (Trodelvy®) in patients with locally advanced or metastatic TNBC who received at least 2 prior treatments, at least 1 in the metastatic setting. The study will include 3 study phases: Screening Phase, treatment Phase, and Survival Follow-up Phase. The treatment phase consists of 21-day cycles: Trilaciclib will be administered IV prior to sacituzumab govitecan-hziy infusions. Trilaciclib will be administered via IV prior to sacituzumab govitecan-hziy administration at 240 mg/m^2. Sacituzumab govitecan-hziy will be administered via IV at 10 mg/kg. The study will include 3 study phases: Screening Phase, Treatment Phase, and Survival Follow up Phase. The Treatment Phase begins on the day of the first dose of study treatment and completes at the Safety Follow-up Visit. The first Survival Follow-up assessment should occur approximately 3 months after the End of Treatment Visit. DC=discontinuation, PD=Progressive disease, PI=Principal Investigator, WD=Withdraw.
An exploratory Phase 2, multicenter, open-label study evaluating the safety and efficacy of trilaciclib administered with sacituzumab govitecan-hziy in patients with unresectable locally advanced or metastatic TNBC who received at least 2 prior treatments, at least 1 in the metastatic setting, is provided herein.
Trilaciclib plus sacituzumab govitecan-hziy will be administered intravenously (IV) in 21-day cycles as follows: • Trilaciclib 240 mg/m^2 administered as a 30-minute IV infusion completed within 4 hours prior to the start of sacituzumab govitecan-hziy on Day 1 and Day 8 of each 21-day treatment cycle. • Sacituzumab govitecan-hziy 10 mg/kg administered IV on Day 1 and Day 8 of each 21-day treatment cycle.
The first infusion of sacituzumab govitecan-hziy is administered over 3 hours and the patient is observed during the infusion and for at least 30 minutes following the initial dose for signs or symptoms of infusion-related reactions. Subsequent infusions of sacituzumab govitecan-hziy may be administered over 1 to 2 hours if prior infusions were tolerated and patients should be observed during the infusion and for at least 30 minutes after infusion. […]

[3] = tested on: patients with metastatic urothelial carcinoma (mUC) progressing after platinum-based chemotherapy and ICIs; settings: following progression; cited from earlier work
[4] = tested on: patients with unresectable locally advanced/metastatic triple-negative breast cancer, PD-L1 positive; settings: paclitaxel with vs without atezolizumab, cited from earlier work
[5] = tested on: patients with PD-L1 positive locally advanced unresectable/metastatic TNBC; settings: cited from earlier work
[6] = tested on: patients with locally recurrent unresectable or metastatic TNBC whose tumors express PD-L1 (CPS ≥10); settings: cited from earlier work
[7] = tested on: patients with metastatic TNBC; settings: N=108; cited from earlier work
[8] = tested on: patients with unresectable locally advanced or metastatic triple-negative breast cancer (mTNBC); settings: cited from earlier work
[9] = tested on: patients treated with sacituzumab govitecan-hziy; settings: cited from earlier work
[10] = tested on: patients with locally advanced or mUC after platinum-containing chemotherapy and PD-1 or PD-L1 inhibitor; settings: cited from earlier work
[11] = trilaciclib prior to sacituzumab govitecan, 8 patients
[12] = trilaciclib prior to sacituzumab govitecan, RECIST v1.1, 8 patients
[13] = mTNBC relapsed after at least two prior chemotherapies
[14] = vs physician's choice of single-agent chemotherapy

Molecule: COc1cc(OC)cc(N(CCNC(C)C)c2ccc3ncc(-c4cnn(C)c4)nc3c2)c1 [erdafitinib]
- objective response rates (ORRs) [1]: approximately 40%

Molecule: CN1CCN(c2ccc(Nc3ncc4cc5n(c4n3)C3(CCCCC3)CNC5=O)nc2)CC1 [trilaciclib, 2′-((5-(4-methylpiperazin-1-yl)pyridin-2-yl)amino)-7′,8′-dihydro-6′H-spiro(cyclohexane-1,9′-pyrazino(1′,2′:1,5)pyrrolo(2,3-d)pyrimidin)-6′-one]
- Grade ≥3 TRAEs related to the named study drug ([2]; 8 patients): Grade 4 neutrophil count decreased
- patients with AEs related to the named study drug ([2]; 8 patients): 2 patients
- effect of inclusion of trilaciclib on side effects associated with sacituzumab govitecan ([2]; initial studies, compared with ASCENT study): drastically reduces the side effects
- Severe (Grade 3/4) neutropenia, number of patients ([2]; trilaciclib 240 mg/m^2 IV within 4 hours prior to sacituzumab govitecan-hziy 10 mg/kg, days 1 and 8 of 21-day cycles, 8 patients): 1 patient
- tolerability ([2]; trilaciclib administered prior to sacituzumab govitecan, preliminary data): well tolerated
- Severe (Grade 3/4) neutropenia, percentage of patients ([2]; trilaciclib prior to sacituzumab govitecan, days 1 and 8 of 21-day cycles, 8 patients): 12.5%
- Grade 3/4 anemia, patients [2, 11]: No patients
- Grade 3/4 thrombocytopenia, patients [2, 11]: No patients
- Granulocyte colony-stimulating factors administered, number of patients [2, 11]: 2 patients
- Granulocyte colony-stimulating factors administered, percentage of patients [2, 11]: 25%
- febrile neutropenia, patients [2, 11]: none
- patients with Grade ≥3 TRAEs [2, 11]: Two
- patients with ≥1 treatment-related adverse event (TRAE) [2, 11]: 5 patients
- required erythropoiesis-stimulating agents, patients [2, 11]: No patients
- required intravenous antibiotics, number of patients [2, 11]: 1 patient
- required red blood cell/platelet transfusions, patients [2, 11]: No patients
- serious adverse events reported to date [2, 11]: no serious AEs; also recorded: no serious adverse events
- serious infection, patients [2, 11]: none
- withdrawn due to an adverse event, patients [2, 11]: No patients
- treatment-related adverse event (TRAE) of diarrhea, number ([2]; trilaciclib prior to sacituzumab govitecan, 8 patients, trilaciclib- and sacituzumab govitecan-related): 1
- partial response, number of patients [2, 12]: one
- stable disease, number of patients [2, 12]: three

Molecule: CC[C@]12C=CCN3CC[C@@]4(c5cc([C@@]6(C(=O)OC)C[C@@H]7C[C@@H](C(C)(F)F)CN(Cc8c6[nH]c6ccccc86)C7)c(OC)cc5N(C)[C@H]4[C@@](O)(C(=O)OC)[C@@H]1OC(C)=O)[C@@H]32 [vinflunine]
- median overall survival (OS) [3]: 7-8 months
- response rates [3]: approximately 10%

Molecule: atezolizumab: a programmed death-ligand 1 (PD-L1) blocking antibody (immune checkpoint inhibitor)
- PFS HR ([4]; frontline): 0.82
- survival HR [4]: 1.11
- survival (lived for an average of) ([5]; PD-L1 positive subset, atezolizumab or placebo plus nab-paclitaxel): 25 months
- median progression-free survival (PFS) ([5]; PD-L1 positive tumors, atezolizumab plus nab-paclitaxel vs placebo plus nab-paclitaxel): 7.4 months
- PFS hazard ratio [HR] ([5]; PD-L1 positive, atezolizumab plus nab-paclitaxel vs placebo plus nab-paclitaxel): 0.60

Molecule: pembrolizumab: PD-1 inhibitor given in combination with chemotherapy for PD-L1 expressing TNBC
- median PFS ([6]; pembrolizumab plus chemotherapy arm): 9.7 months
- PFS HR ([6]; pembrolizumab plus chemotherapy vs placebo arm): 0.65

Molecule: sacituzumab govitecan
- ORR [7]: 33.3%
- median duration of response (DOR) [7]: 7.7 months
- patients having a DOR of ≥6 months [7]: 55.5%
- patients having a DOR of ≥12 months [7]: 16.7%
- Grade ≥3 TRAEs related to the named study drug ([2]; 8 patients): Grade 3 alopecia and Grade 3 neutropenia; also recorded: Grade 4 neutrophil count decreased
- patients with AEs related to the named study drug ([2]; 8 patients): 5 patients
- Severe (Grade 3/4) neutropenia, patients ([8]; ASCENT study, without trilaciclib): 52%
- G-CSF used as a rescue therapy, patients ([8]; ASCENT study): 44%
- adverse reaction leading to a dose reduction, patients ([8]; ASCENT study): 22%
- adverse reaction leading to treatment interruption, patients ([8]; ASCENT study): 45%
- permanently discontinued for adverse reactions, patients ([8]; mTNBC patients, ASCENT study): 5%
- median overall survival (OS) [8, 13]: 11.8 months
- median progression free survival (PFS) [8, 13]: 4.8 months
- OS hazard ratio (HR) [8, 14]: 0.51
- PFS hazard ratio [HR] [8, 14]: 0.43
- Diarrhea, patients ([9]; all grades, all patients treated): 65%
- neutropenia, patients ([9]; all grades): 61%
- Grade 3-4 diarrhea, patients ([9]; all patients treated): 12%
- Grade 3-4 neutropenia, patients ([9]; in vivo): 47%
- Neutropenic colitis, patients ([9]; in vivo): 0.5%
- febrile neutropenia, patients ([9]; in vivo): 7%
- intestinal perforation following diarrhea, number of patients ([9]; in vivo): One
- objective (overall) response rate (ORR) ([10]; 10 mg/kg intravenously, days 1 and 8 of a 21-day cycle, 112 patients, RECIST 1.1): 27.7%
- median duration of response (DOR) ([10]; 10 mg/kg intravenously, days 1 and 8 of a 21-day cycle): 7.2 months and 7.1 months
- complete responses ([10]; 112 patients): 5.4%
- partial responses ([10]; 112 patients): 22.3%
